ChEMBL document CHEMBL4033707, “Discovery of a novel aminopyrazine series as selective PI3Kα inhibitors” (Bioorg Med Chem Lett, 2017)
Values after ≈ are worked out from the molar mass of the structure shown. Active and inactive are the calls of the source. No cut-off for these calls is given here.

Legend:
[1] = target: Phosphatidylinositol 4,5-bisphosphate 3-kinase catalytic subunit alpha isoform (Homo sapiens, UniProt P42336); experiment: Inhibition of PI3Kalpha (unknown origin)
[2] = target: T1, Phosphatidylinositol 4,5-bisphosphate 3-kinase catalytic subunit beta isoform (Homo sapiens, UniProt P42338); experiment: Inhibition of PI3Kbeta (unknown origin)
[3] = Inhibition of PI3Kalpha mutant in human BT474 cells assessed as reduction in AKT phosphorylation at Thr308; assay type: cell-based; conditions: BT-474
[4] = target: T1, Phosphatidylinositol 4,5-bisphosphate 3-kinase catalytic subunit beta isoform; experiment: Inhibition of PI3Kbeta in PTEN-deficient human MDA-MB-468 cells assessed as reduction in AKT phosphorylation at Ser473
[5] = Dissociation constant, pKa of the compound; assay type: physicochemical
[6] = Octanol-buffer partition coefficient, log D of the compound at pH 7.4 by shake-flask method; assay type: physicochemical
[7] = Aqueous solubility of the compound in phosphate buffer at pH 7.4; assay type: physicochemical
[8] = Apparent permeability of the compound across apical side to basolateral side in human Caco2 cells; assay type: ADME, cell-based; conditions: Caco-2
[9] = Clearance in Han Wistar rat at 4 umol/kg, iv or 10 umol/kg, po; assay type: ADME, organism-based; conditions: in vivo
[10] = Volume of distribution in Han Wistar rat at 4 umol/kg, iv or 10 umol/kg, po; assay type: ADME, organism-based; conditions: in vivo
[11] = Oral bioavailability in Han Wistar rat at 10 umol/kg; assay type: ADME, organism-based; conditions: in vivo
[12] = Aqueous solubility of the compound in phosphate buffer at pH 7.4 using crystalline sample; assay type: physicochemical
[13] = Clearance in Beagle dog at 1 umol/kg, po; assay type: ADME, Canis lupus familiaris; conditions: in vivo
Canis familiaris = experiment: Volume of distribution in Beagle dog at 1 umol/kg, po; assay type: ADME, Canis lupus familiaris; conditions: in vivo
[14] = Oral bioavailability in Beagle dog at 1 umol/kg; assay type: ADME, organism-based, Canis lupus familiaris; conditions: in vivo
[15] = AUC in mouse at 100 mg/kg, po; assay type: ADME, organism-based; conditions: in vivo
[16] = Cmax in mouse at 100 mg/kg, po; assay type: ADME, organism-based; parameters: dose 100 mg/kg, route oral; conditions: in vivo
MCF7 [17] = experiment: Anti-tumor activity against human MCF7 cells harboring PI3KCA E545K mutant xenografted in Swiss nu/nu mouse assessed as tumor growth inhibition at 50 mg/kg, po administered twice daily for 21 days measured post last dose relative to control; assay type: functional; conditions: 504 h, read-out: TGI
MCF7 [18] = experiment: Anti-tumor activity against human MCF7 cells harboring PI3KCA E545K mutant xenografted in Swiss nu/nu mouse assessed as tumor growth inhibition at 25 mg/kg, po administered twice daily for 21 days measured post last dose relative to control; assay type: functional; conditions: 504 h, read-out: TGI
MCF7 [19] = experiment: Anti-tumor activity against human MCF7 cells harboring PI3KCA E545K mutant xenografted in Swiss nu/nu mouse assessed as tumor growth inhibition at 10 mg/kg, po administered twice daily for 21 days measured post last dose relative to control; assay type: functional; conditions: 504 h, read-out: TGI
[20] = target: T2, Phosphatidylinositol 4,5-bisphosphate 3-kinase catalytic subunit gamma isoform (Homo sapiens, UniProt P48736); experiment: Inhibition of PI3Kgamma (unknown origin)
[21] = target: Phosphatidylinositol 4,5-bisphosphate 3-kinase catalytic subunit delta isoform (Homo sapiens, UniProt O00329); experiment: Inhibition of PI3Kdelta (unknown origin)
[22] = target: Phosphatidylinositol 4-kinase beta (Homo sapiens, UniProt Q9UBF8); experiment: Inhibition of human PI4KB (1 to 801 residues) by ADP Glo HTS assay
[23] = target: Phosphoinositide 3-kinase regulatory subunit 4 (Homo sapiens, UniProt Q99570); experiment: Inhibition of VPS15 (unknown origin)
[24] = target: Serine/threonine-protein kinase mTOR (Homo sapiens, UniProt P42345); experiment: Inhibition of m-TOR (unknown origin)
[25] = target: Choline kinase alpha (Homo sapiens) (UniProt P35790); experiment: Inhibition of human CHKalpha (1 to 457 residues) at 50 uM by ADP Glo HTS assay
[26] = target: Choline/ethanolamine kinase (Homo sapiens) (UniProt Q9Y259); experiment: Inhibition of human CHKbeta (1 to 395 residues) at 50 uM by ADP Glo HTS assay
[27] = target: Diacylglycerol kinase beta (Homo sapiens) (UniProt Q9Y6T7); experiment: Inhibition of human DGKbeta (1 to 804 residues) at 50 uM by ADP Glo HTS assay
[28] = target: Diacylglycerol kinase gamma (Homo sapiens) (UniProt P49619); experiment: Inhibition of human DGKgamma (1 to 752 residues) at 50 uM by ADP Glo HTS assay
[29] = target: Diacylglycerol kinase zeta (Homo sapiens) (UniProt Q13574); experiment: Inhibition of human DGKzeta (1 to 929 residues) at 50 uM by ADP Glo HTS assay
[30] = target: Phosphatidylinositol 3-kinase regulatory subunit alpha (Homo sapiens) (UniProt P27986); experiment: Inhibition of human PI3K p85alpha (1 to 724 residues) at 50 uM by ADP Glo HTS assay
[31] = system: Phosphatidylinositol 4,5-bisphosphate 3-kinase catalytic subunit alpha isoform (Homo sapiens), P42336 [E542K]; experiment: Inhibition of human PI3Kalpha (2 to 1068 residues)/p85 (1 to 724 residues) E542K mutant at 50 uM by ADP Glo HTS assay
[32] = system: Phosphatidylinositol 4,5-bisphosphate 3-kinase catalytic subunit alpha isoform (Homo sapiens), P42336 [E545K]; experiment: Inhibition of human PI3Kalpha (2 to 1068 residues)/p85 (1 to 724 residues) E545K mutant at 50 uM by ADP Glo HTS assay
[33] = target: Sphingosine kinase 1 (Homo sapiens) (UniProt Q9NYA1); experiment: Inhibition of human SphK1 (1 to 384 residues) at 50 uM by […] HTS assay
[34] = target: Phosphatidylinositol 3-kinase regulatory subunit beta (Homo sapiens) (UniProt O00459); experiment: Inhibition of human PI3K p85beta (1 to 724 residues) at 50 uM by ADP Glo HTS assay
[35] = target: T2, Phosphatidylinositol 4,5-bisphosphate 3-kinase catalytic subunit gamma isoform; experiment: Inhibition of human PI3Kgamma (2 to 1102 residues) at 50 uM by ADP Glo HTS assay
Target sequence in this assay (P48736 whole entry, looked up, canonical isoform): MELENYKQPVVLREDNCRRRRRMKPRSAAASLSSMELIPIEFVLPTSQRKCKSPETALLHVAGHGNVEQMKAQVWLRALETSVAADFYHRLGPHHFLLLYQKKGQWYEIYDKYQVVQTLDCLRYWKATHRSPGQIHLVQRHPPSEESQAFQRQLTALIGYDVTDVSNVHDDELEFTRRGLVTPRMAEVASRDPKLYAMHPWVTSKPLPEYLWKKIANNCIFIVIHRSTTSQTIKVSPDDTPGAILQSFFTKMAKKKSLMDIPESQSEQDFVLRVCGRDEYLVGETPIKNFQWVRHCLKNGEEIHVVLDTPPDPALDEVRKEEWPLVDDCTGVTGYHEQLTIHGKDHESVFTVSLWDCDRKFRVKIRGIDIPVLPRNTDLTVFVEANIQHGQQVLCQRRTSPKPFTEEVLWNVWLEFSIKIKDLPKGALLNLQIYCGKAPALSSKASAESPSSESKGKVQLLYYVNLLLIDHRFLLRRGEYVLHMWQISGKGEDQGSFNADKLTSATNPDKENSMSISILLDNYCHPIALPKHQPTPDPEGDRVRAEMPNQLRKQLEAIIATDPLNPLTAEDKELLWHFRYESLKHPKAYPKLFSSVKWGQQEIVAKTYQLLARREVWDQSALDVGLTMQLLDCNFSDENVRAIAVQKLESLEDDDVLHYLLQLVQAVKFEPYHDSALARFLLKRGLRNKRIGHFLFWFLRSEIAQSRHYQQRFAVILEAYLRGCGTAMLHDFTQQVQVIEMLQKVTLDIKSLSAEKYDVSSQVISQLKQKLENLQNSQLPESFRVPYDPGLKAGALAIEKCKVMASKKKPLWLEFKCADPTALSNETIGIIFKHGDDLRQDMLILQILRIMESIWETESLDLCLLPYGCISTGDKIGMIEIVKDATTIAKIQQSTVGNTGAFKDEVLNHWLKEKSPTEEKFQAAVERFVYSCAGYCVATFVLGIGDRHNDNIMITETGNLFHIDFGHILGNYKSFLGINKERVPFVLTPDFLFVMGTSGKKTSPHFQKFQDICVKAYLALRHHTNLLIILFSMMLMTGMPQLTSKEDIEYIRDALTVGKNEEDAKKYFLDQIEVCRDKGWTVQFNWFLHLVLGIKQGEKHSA

[36] = target: Sphingosine kinase 2 (Homo sapiens) (UniProt Q9NRA0); experiment: Inhibition of human SPHK 2 (1 to 654 residues) at 50 uM by ADP Glo HTS assay

Sequence of Phosphatidylinositol 4,5-bisphosphate 3-kinase catalytic subunit alpha isoform (P42336 whole entry, canonical isoform): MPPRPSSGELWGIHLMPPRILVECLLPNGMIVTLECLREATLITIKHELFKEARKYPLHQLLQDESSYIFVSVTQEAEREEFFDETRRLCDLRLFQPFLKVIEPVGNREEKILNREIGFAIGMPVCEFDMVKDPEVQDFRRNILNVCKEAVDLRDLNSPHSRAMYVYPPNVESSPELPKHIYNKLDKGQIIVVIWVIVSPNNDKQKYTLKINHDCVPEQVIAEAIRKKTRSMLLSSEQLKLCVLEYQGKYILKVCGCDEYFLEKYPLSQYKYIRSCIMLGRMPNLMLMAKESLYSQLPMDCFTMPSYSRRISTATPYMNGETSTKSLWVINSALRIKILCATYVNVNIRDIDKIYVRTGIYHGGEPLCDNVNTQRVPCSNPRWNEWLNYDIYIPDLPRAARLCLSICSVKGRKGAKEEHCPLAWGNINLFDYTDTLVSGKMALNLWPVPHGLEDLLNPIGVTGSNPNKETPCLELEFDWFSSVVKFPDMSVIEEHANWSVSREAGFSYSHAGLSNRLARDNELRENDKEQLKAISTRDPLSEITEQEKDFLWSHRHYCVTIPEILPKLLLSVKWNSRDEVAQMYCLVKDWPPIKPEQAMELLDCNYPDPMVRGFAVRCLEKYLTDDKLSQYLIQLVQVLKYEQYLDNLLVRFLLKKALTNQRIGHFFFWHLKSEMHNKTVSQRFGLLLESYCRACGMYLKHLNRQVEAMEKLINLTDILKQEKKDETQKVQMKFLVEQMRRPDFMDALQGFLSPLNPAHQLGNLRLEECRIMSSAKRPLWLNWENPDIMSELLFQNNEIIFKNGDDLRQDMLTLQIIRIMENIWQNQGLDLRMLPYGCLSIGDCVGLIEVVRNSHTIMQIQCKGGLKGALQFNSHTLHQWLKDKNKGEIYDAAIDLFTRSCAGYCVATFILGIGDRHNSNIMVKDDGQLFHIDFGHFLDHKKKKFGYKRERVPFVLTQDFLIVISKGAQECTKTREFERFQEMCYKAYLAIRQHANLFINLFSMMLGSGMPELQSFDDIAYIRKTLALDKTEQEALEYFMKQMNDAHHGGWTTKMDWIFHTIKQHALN
T1 sequence (P42338 whole entry, canonical isoform): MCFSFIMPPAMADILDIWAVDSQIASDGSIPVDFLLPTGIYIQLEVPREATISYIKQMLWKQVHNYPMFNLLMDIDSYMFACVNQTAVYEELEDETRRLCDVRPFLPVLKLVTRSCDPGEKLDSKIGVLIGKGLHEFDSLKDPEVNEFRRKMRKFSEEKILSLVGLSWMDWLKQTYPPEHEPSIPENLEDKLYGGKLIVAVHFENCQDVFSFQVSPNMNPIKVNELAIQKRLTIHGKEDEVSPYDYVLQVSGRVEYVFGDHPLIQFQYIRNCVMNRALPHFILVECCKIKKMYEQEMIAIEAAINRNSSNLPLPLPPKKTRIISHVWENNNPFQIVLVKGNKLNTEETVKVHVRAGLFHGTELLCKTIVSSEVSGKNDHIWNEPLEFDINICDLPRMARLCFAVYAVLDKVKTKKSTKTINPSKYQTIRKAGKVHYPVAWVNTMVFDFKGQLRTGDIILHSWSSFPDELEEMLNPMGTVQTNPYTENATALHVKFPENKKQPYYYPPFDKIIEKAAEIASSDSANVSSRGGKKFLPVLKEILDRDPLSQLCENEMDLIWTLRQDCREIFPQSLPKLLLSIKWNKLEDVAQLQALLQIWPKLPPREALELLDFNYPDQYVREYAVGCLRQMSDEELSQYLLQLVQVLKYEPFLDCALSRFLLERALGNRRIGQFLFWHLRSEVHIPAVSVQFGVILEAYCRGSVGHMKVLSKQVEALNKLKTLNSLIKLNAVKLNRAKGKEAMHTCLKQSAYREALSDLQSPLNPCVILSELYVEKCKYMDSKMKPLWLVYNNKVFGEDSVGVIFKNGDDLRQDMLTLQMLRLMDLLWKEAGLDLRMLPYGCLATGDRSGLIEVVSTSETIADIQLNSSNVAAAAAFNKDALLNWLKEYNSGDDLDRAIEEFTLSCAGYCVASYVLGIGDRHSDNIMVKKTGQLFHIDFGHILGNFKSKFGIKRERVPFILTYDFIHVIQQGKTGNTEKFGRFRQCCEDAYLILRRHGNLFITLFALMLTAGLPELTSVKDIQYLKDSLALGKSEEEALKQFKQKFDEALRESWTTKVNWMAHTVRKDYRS
Sequence of Phosphoinositide 3-kinase regulatory subunit 4 (Q99570 whole entry): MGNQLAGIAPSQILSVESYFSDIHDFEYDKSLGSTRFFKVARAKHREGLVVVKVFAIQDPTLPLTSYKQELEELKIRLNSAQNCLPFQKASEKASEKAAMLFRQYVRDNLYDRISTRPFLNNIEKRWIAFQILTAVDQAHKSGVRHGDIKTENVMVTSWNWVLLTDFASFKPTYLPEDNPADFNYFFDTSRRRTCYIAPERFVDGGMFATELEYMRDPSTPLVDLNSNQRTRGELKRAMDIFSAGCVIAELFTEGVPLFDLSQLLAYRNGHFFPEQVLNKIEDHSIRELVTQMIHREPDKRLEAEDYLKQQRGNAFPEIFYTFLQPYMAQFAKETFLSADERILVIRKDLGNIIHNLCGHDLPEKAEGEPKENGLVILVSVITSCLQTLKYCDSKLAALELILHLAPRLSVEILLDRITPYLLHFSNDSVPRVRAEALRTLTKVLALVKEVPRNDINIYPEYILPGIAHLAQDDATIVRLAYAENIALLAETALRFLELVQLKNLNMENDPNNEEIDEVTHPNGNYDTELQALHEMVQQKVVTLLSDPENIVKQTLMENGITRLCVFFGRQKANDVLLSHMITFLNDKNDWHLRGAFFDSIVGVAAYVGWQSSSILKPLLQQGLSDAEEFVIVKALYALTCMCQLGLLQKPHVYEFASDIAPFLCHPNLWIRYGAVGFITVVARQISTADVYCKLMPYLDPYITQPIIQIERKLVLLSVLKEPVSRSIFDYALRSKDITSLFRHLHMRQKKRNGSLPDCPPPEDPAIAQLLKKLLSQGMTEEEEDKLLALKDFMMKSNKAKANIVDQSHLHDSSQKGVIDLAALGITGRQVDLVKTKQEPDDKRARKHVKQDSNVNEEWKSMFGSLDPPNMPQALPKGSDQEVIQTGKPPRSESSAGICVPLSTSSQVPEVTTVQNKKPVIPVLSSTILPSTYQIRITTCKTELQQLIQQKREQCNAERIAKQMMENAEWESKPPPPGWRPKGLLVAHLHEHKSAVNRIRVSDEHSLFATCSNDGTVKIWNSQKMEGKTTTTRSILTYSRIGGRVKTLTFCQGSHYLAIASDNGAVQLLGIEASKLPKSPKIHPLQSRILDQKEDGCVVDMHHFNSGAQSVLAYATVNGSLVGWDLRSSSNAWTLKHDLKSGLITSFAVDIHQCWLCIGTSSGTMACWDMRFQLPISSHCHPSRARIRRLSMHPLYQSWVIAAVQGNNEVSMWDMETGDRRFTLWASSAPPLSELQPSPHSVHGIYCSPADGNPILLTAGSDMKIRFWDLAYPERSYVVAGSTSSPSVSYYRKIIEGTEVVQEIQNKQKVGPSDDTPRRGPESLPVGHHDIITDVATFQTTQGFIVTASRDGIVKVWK
Sequence of Choline kinase alpha (Homo sapiens) (P35790 whole entry, looked up, the tested form may be a part): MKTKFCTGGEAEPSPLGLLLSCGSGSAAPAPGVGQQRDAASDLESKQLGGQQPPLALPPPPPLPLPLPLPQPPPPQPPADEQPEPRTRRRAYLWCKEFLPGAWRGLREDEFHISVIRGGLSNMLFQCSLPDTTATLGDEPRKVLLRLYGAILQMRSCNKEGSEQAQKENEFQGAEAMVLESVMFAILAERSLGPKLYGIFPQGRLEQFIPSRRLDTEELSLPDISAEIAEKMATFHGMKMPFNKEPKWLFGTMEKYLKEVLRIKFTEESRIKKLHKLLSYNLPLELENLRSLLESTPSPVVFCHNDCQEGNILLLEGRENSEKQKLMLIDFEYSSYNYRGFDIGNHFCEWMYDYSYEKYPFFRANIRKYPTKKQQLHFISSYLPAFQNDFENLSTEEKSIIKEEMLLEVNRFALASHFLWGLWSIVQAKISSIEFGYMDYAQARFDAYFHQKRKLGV

`CNC(=O)c1nc(-c2nc(-c3cnn4ccccc34)c(C)nc2N)n(C)n1` gave an IC50 [1] of under 10 nM, an IC50 [2] of 24 to 180 nM and an IC50 [3] of 24 nM. It also gave an IC50 [4] of 1500 nM, a pKa [5] of 2.3 and a logD [6] of 2.3. The solubility [7] was 7 µM (≈ 2.54 µg/mL), the Papp A→B [8] was 36 ×10⁻⁶ cm/s and the clearance [9] was 27 mL/min/kg. For the same compound, the Vd [10] was 0.8 L/kg and the bioavailability [11] was 9%.
Work on `CNC(=O)c1nc(-c2nc(-c3cnc4ccccn34)c(C)nc2N)n(C)n1` yielded a solubility thermodynamic [12] of 26 µM (≈ 9.45 µg/mL), an IC50 [1] of 6 nM and an IC50 [2] of 87 to 540 nM. The IC50 [3] was 87 nM, the IC50 [4] was 8400 nM and the pKa [5] was 6.2. It also gave a logD [6] of 1.8, a Papp A→B [8] of 6 ×10⁻⁶ cm/s and a clearance [9] of 11 mL/min/kg. It also gave a Vd [10] of 0.9 L/kg, a bioavailability [11] of 46% and a CL/F [13] of 19 mL/min/kg. The Vd (Canis familiaris) was 0.8 L/kg, the bioavailability [14] was 60% and the AUC [15] was 36.2 µM·h. For the same compound, the Cmax [16] was 18 µM, the inhibition in vivo at 50 mg/kg (MCF7 [17]) was 86% and the inhibition in vivo at 25 mg/kg (MCF7 [18]) was 44%. For the same compound, the inhibition in vivo at 10 mg/kg (MCF7 [19]) was 29%, the IC50 [20] was 43 nM and the IC50 [21] was 16 nM. The IC50 [22] was 2800 nM, the IC50 [23] was 16000 nM and the IC50 [24] was 29000 nM. The inhibition [25] was “inactive”, the inhibition [26] was “inactive” and the inhibition [27] was “inactive”. For the same compound, the inhibition [28] was “inactive”, the inhibition [29] was “inactive” and the inhibition [30] was “inactive”. For the same compound, the inhibition [31] was “inactive”, the inhibition [32] was “inactive” and the inhibition [33] was “inactive”. The inhibition [34] was “inactive”, the inhibition [35] was “inactive” and the inhibition [36] was “inactive”.
Compound `Cc1nc(N)c(-c2cnn(C3CCN(C)CC3)n2)nc1-c1cnc2ccccn12` has an IC50 [1] of 8 nM, an IC50 [2] of 76 nM and an IC50 [3] of 100 nM. For the same compound, the IC50 [4] was 550 nM.
Work on `Cc1nc(N)c(-c2nc(C(=O)NCCN(C)C)nn2C)nc1-c1cnn2ccccc12` yielded an IC50 [3] of 6 nM and an IC50 [4] of 1500 nM.
For `CN(C)CC(=O)N1CCC(n2cc(-c3cnc(N)c(-n4nnc5ccccc54)n3)cn2)CC1`, the IC50 [3] was 58 nM.
With `CO[C@H]1CC[C@H](NC(=O)c2nc(-c3nc(-c4cnc5ccccn45)c(C)nc3N)n(C)n2)CC1` the IC50 [3] was 22 nM and the IC50 [4] was 16000 nM.
Compound `Cc1nc(N)c(-c2nc(C3CCN(C)CC3)nn2C)nc1-c1cnc2ccccn12` has an IC50 [1] of 5 nM, an IC50 [2] of 32 nM and an IC50 [3] of 49 nM. It also gave an IC50 [4] of 200 nM.
In the case of `CNC(=O)c1nc(-c2nc(-c3cnc4ccccn34)cnc2N)n(C)n1`, the IC50 [1] is reported as 20 nM, the IC50 [2] is reported as 1300 nM and the IC50 [3] is reported as 380 nM. For the same compound, the IC50 [4] was 21000 nM.
